{"source": "patent US20100184189A1", "about": "“PROTEIN FOR THE CHEMOENZYMATIC PRODUCTION OF L-THREO-HYDROXYASPARTATE” (priority 2007, published 2010)", "molecules": {"B1": {"name": "wild type AsnO (Streptomyces coelicolor A3(2)) (protein)", "chain": "MAANAAGPASRYDVTLDQSDAELVEEIAWKLATQATGRPDDAEWVEAARNAWHAWPATLRRDLAGFRRDSGPDGAIVLRGLPVDSMGLPPTPRVNGSVQREASLGAAVLLMTACGLGDPGAFLPEKNGALVQDVVPVPGMEEFQGNAGSTLLTFHNENAFHEHRPDFVMLLCLRADPTGRAGLRTACVRRVLPLLSDSTVDALWAPEFRTAPPPSFQLSGPEEAPAPVLLGDRSDPDLRVDLAATEPVTERAAEALRELQAHFDATAVTHRLLPGELAIVDNRVTVHGRTEFTPRYDGTDRWLQRTFVLTDLRRSRAMRPADGYVLGAAPQPA"}}, "key": {"[1]": {"biological_target": "T1, AsnO D241N (Streptomyces coelicolor, UniProt Q9Z4Z5, D241N/M1S)", "T1 sequence (Q9Z4Z5 other isoform, or with tags, fused parts or gaps D241N)": "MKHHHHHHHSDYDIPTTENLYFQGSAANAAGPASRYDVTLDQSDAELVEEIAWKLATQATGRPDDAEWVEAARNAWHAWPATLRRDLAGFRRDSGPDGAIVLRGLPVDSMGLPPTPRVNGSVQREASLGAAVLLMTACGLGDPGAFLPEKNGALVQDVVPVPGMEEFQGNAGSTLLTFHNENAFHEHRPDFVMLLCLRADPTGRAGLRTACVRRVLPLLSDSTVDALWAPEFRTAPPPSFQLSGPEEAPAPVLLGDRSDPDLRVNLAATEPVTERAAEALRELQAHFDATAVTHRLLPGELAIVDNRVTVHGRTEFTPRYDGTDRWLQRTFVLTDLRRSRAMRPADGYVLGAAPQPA", "experiment": "Substrate specificity of the mutated protein AsnO D241N, HPLC/MS", "format": "biochemical", "design": "made in house; host or cells: E. coli BL21 (DE3), pQTEV vector", "conditions": "amino acid 1.5 mM, 16 h at 16° C., (NH4)2Fe(SO4)2 1 mM, α-ketoglutarate 4 mM, catalase, HEPES pH 7.5", "method": "The specificity of AsnO D241N for the conversion of L-Asp in L-threo-3-hydroxyaspartate is examined by incubating this mutated protein during 16 h at 16° C. with the amino acids (1.5 mM) listed in Table 1, the cofactor (NH4)2Fe(SO4)2 (1 mM), the cosubstrate α-ketoglutarate (4 mM) and 20 μg catalase in […] of a 50 mM HEPES buffer (pH 7.5). The catalase is added in order to quench reactive oxygen species and to prevent hereby the autoxidation of the enzyme. Controls are carried out in the absence of AsnO D241N.\nThe reaction is stopped by the addition of 50-200 μL of a 4% solution (V/V) of nonafluoropentane acid and subsequently the hydroxylation of the amino acid substrate to the respectively corresponding hydroxy amino acid is examined by means of reversed phase HPLC/MS. Column: Hypercarb (Thermo Electron Corporation, pore diameters of 250 Å, particle size of 5 μM, 100% carbon). Mobile phases: A=20 mM aqueous nonafluoropentane acid, B=acetonitrile. Gradient: 0-10% B in 12 min, flow rate 0.2 mL/min at 17.5° C.\nThe reaction product of the incubation of the respective amino acid with AsnO D241N is carried out by means of highest resolution MS with an API Qstar Pulsar I (Applied Biosystems)."}, "[2]": {"test_system": "glutamate transporters", "conditions": "literature statement; cited from earlier work"}, "[3]": {"test_system": "wild type AsnO", "experiment": "Kinetic parameters of the wild type AsnO for L-Asn (comparison)", "format": "biochemical, Streptomyces coelicolor", "conditions": "wild type AsnO with L-Asn versus AsnO D241N with L-Asp"}, "[4]": {"biological_target": "T1, AsnO D241N", "conditions": "AsnO D241N 40 μM, substrate L-Asp 50 μM to 2 mM", "procedure": "For the evaluation of the kinetic parameters at different concentrations of the substrate L-Asp (50 μM to 2 mM), the latter was incubated as described under practical embodiment 3 with AsnO D241N (40 μM), 1.0 mM (NH4)2Fe(SO4)2 as source of the iron cofactor and 1.0 mM α-ketoglutarate (cosubstrate) and the enzyme assay was stopped at different points in time by adding nonafluoropentane acid.\nThe kinetic parameters of AsnO D241N are subsequently determined by means of a Lineweaver-Burk equation (FIG. 4b)."}, "[5]": {"biological_target": "T1, AsnO D241N", "experiment": "Activity of the AsnO D241N mutant: conversion of L-Asp, HPLC MS", "format": "biochemical", "design": "made in house; host or cells: E. coli BL21 (DE3), pQTEV vector", "conditions": "AsnO D241N 40 μM, 1.5 mM L-Asp, 1.0 mM (NH4)2Fe(SO4)2, 1.0 mM α-ketoglutarate, 16 h, 16° C.", "method": "In order to evaluate the activity of the AsnO D241N mutant, the purified enzyme\nThe reaction is monitored by means of HPLC MS, by scanning the masses for L-Asp ([M+H]^+=[…]) and its hydroxylated form ([M+H]^+=150.04 Da). […] (FIG. 3a). In the control reaction, in which no enzyme is added, only L-Asp can be detected (FIG. 3b). Commercially available L-Asp (Bachem) as well as L-threo-3-hydroxyaspartate (Tocris Bioscience) are used as standards for the comparison of the retention times with HPLC.\nColumn: Hypercarb (Thermo Electron Corporation, pore diameters of 250 Å, particle size of 5 μM, 100% carbon). Mobile phases: A=20 mM aqueous nonafluoropentane acid, B=acetonitrile Gradient: 0-10% B in 12 min, flow rate 0.2 mL 1 min at 17.5° C. • FIG. 3a: negative control, no addition of enzyme (=AsnO D241N) • Only L-Asp is detected. • Retention time: 3.72 min; • Mber=134.045, Mgef=134.048 • FIG. 3b: incubation of L-Asp with AsnO D241N • After 16 h of incubation at 16° C. only • L-threo-3-hydroxyaspartate is detected. • Retention time 3.39 min; • Mber=150.040, Mgef=150.042"}, "[6]": {"substrate": "NC(=O)C[C@H](N)C(=O)O", "experiment": "Kinetic parameters of the wild type AsnO for L-Asn (comparison)", "format": "biochemical, Streptomyces coelicolor", "conditions": "other: wild type AsnO, substrate L-Asn"}}}
{"molecule": "CC[C@H](C)[C@H](N)C(=O)O", "note": "[L-Ile]", "values": [{"measurement": "hydroxylation", "setting": "[1]", "value": "no"}]}
{"molecule": "N[C@H](CC(=O)O)C(=O)O", "note": "[D-Asp]", "values": [{"measurement": "hydroxylation", "setting": "[1]", "value": "no"}]}
{"molecule": "N[C@@H](Cc1c[nH]c2ccccc12)C(=O)O", "note": "[L-Trp]", "values": [{"measurement": "hydroxylation", "setting": "[1]", "value": "no"}]}
{"molecule": "NC(C(=O)O)C(OCc1ccccc1)C(=O)O", "note": "[L-TBOA]", "values": [{"measurement": "inhibition of the function of the glutamate transporters", "setting": "[2]", "value": "also comprises this inhibitor effect"}]}
{"molecule": "NC(=O)C[C@H](N)C(=O)O", "note": "[L-Asn, L-asparagine]", "values": [{"measurement": "kcat of wild type AsnO relative to AsnO D241N", "setting": "[3]", "value": 300, "unit": "times"}, {"measurement": "hydroxylation", "setting": "[1]", "value": "no"}]}
{"molecule": "N[C@@H](CC(=O)O)C(=O)O", "note": "[L-Asp, L-aspartate]", "values": [{"measurement": "Km", "setting": "[4]", "value": "457 ± 31", "unit": "µM"}, {"measurement": "kcat", "setting": "[4]", "value": "0.0167 ± 0.0017", "unit": "s⁻¹"}, {"measurement": "conversion of L-aspartate to L-threo-3-hydroxyaspartate", "setting": "[5]", "value": "Quantitative conversion"}, {"measurement": "conversion of L-aspartate to L-threo-3-hydroxyaspartate", "setting": "[5]; listed as L-aspartate", "value": "quantitative conversion"}, {"measurement": "hydroxylation", "setting": "[1]", "value": "yes"}]}
{"molecule": "N[C@H](C(=O)O)[C@H](O)C(=O)O", "note": "[L-threo-hydroxaspartate, L-threo-hydroxyaspartate]", "values": [{"measurement": "inhibition of the function of the glutamate transporters", "setting": "[2]", "value": "inhibits the function of the glutamate transporters"}]}
{"molecule": "CC(C)[C@H](N)C(=O)O", "note": "[L-Val]", "values": [{"measurement": "hydroxylation", "setting": "[1]", "value": "no"}]}
{"molecule": "N[C@@H](Cc1ccccc1)C(=O)O", "note": "[L-Phe]", "values": [{"measurement": "hydroxylation", "setting": "[1]", "value": "no"}]}
{"molecule": "NC(=O)CC[C@H](N)C(=O)O", "note": "[L-Gln]", "values": [{"measurement": "hydroxylation", "setting": "[1]", "value": "no"}]}
{"molecule": "N[C@@H](CCC(=O)O)C(=O)O", "note": "[L-Glu, L-glutamate]", "values": [{"measurement": "hydroxylation", "setting": "[1]", "value": "no"}]}
{"molecule": "B1", "values": [{"measurement": "Km", "setting": "[6]", "value": "478 ± 67", "unit": "µM"}, {"measurement": "kcat", "setting": "[6]", "value": "4.97 ± 0.317", "unit": "s⁻¹"}]}
